In PubChem BioAssay (NCI):
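Step 1: Grow cells in 96-well plates. Step 2: Expose to compound for 48 hours at 5 concentrations. Step 3: Interpolate endpoints linearly; if unreached, use highest concentration. Abbreviation: GI50, concentration required for 50% inhibition of growth. TGI is the concentration that stops growth completely.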

Tests used:
Assay in all cases: NCI anticancer screen, dose series, 48 h
[1] = system: M14 melanoma
[2] = system: HL-60(TB) leukemia
[3] = system: OVCAR-5 ovarian
[4] = system: T-47D breast
[5] = system: SK-OV-3 ovarian
[6] = system: NCI-H23 lung
[7] = system: HCT-15 colon
[8] = system: MDA-MB-231 breast
[9] = system: HOP-92 NSCLC
[10] = system: SF-295 CNS
[11] = system: SNB-75 CNS
[12] = system: SW-620 colon
[13] = system: NCI-H460 lung
[14] = system: BT-549 breast
[15] = system: ACHN renal
[16] = system: NCI-H522 lung
[17] = system: RPMI-8226 leukemia
[18] = system: SK-MEL-5 melanoma
[19] = system: HOP-62 NSCLC
[20] = system: U251 CNS
[21] = system: HCC-2998 colon
[22] = system: DU-145 prostate
[23] = system: MOLT-4 leukemia
[24] = system: SK-MEL-2 melanoma
[25] = system: EKVX NSCLC
[26] = system: UO-31 renal
[27] = system: 786-0 renal
[28] = system: SK-MEL-28 melanoma
[29] = system: SR leukemia
[30] = system: OVCAR-3 ovarian
[31] = system: HCT-116 colon
[32] = system: HS 578T breast
[33] = system: LOX IMVI melanoma
[34] = system: UACC-62 melanoma
[35] = system: MALME-3M melanoma
[36] = system: KM12 colon
[37] = system: SN12C renal
[38] = system: NCI-H226 lung
[39] = system: MDA-MB-468 breast
[40] = system: UACC-257 melanoma
[41] = system: CCRF-CEM leukemia
[42] = system: A498 renal
[43] = system: IGROV1 ovarian
[44] = system: K-562 leukemia
[45] = system: SF-539 CNS
[46] = system: CAKI-1 renal
[47] = system: HT29 colon

C=Cn1cc(C(=O)O)c(=O)c2cc(F)c(N3CCN(c4nccc(-c5nccs5)n4)CC3)cc21
GI50 [1]: 238 nM
TGI [1]: 3380 nM
GI50 [2]: 209 nM
TGI [2]: 2950 nM
GI50 [3]: 234 nM
TGI [3]: 3370 nM
GI50 [4]: 118 nM
TGI [4]: > 100000 nM
GI50 [5]: 208 nM
TGI [5]: 3790 nM
GI50 [6]: 55.8 nM
TGI [6]: 1270 nM
GI50 [7]: 40.5 nM
TGI [7]: 1600 nM
GI50 [8]: 345 nM
TGI [8]: 3440 nM
GI50 [9]: 210 nM
TGI [9]: 1660 nM
GI50 [10]: 29.1 nM
TGI [10]: 1550 nM
GI50 [11]: 115 nM
TGI [11]: 1630 nM
GI50 [12]: 23.4 nM
TGI [12]: 2690 nM
GI50 [13]: 21.5 nM
TGI [13]: 1390 nM
GI50 [14]: 194 nM
TGI [14]: 1560 nM
GI50 [15]: 16.6 nM
TGI [15]: 1170 nM
GI50 [16]: 66.7 nM
TGI [16]: 1280 nM
GI50 [17]: 62 nM
TGI [17]: 1450 nM
GI50 [18]: 36.4 nM
TGI [18]: 576 nM
GI50 [19]: 139 nM
TGI [19]: 3690 nM
GI50 [20]: 85.8 nM
TGI [20]: > 100000 nM
GI50 [21]: 80.4 nM
TGI [21]: 2030 nM
GI50 [22]: 145 nM
TGI [22]: 4080 nM
GI50 [23]: 40.4 nM
TGI [23]: 2520 nM
GI50 [24]: 77.1 nM
TGI [24]: 1260 nM
GI50 [25]: 283 nM
TGI [25]: 4300 nM
GI50 [26]: 25.9 nM
TGI [26]: 782 nM
GI50 [27]: 225 nM
TGI [27]: 2920 nM
GI50 [28]: 96.4 nM
TGI [28]: 1260 nM
TGI [29]: 1530 nM
GI50 [30]: 88.6 nM
TGI [30]: 2770 nM
GI50 [31]: 30.4 nM
TGI [31]: 1420 nM
GI50 [32]: 86.5 nM
TGI [32]: 1490 nM
GI50 [33]: 35 nM
TGI [33]: 195 nM
GI50 [34]: 24.6 nM
TGI [34]: 175 nM
GI50 [35]: 50.6 nM
TGI [35]: 1330 nM
GI50 [36]: 78.5 nM
TGI [36]: 2670 nM
GI50 [37]: 119 nM
TGI [37]: 2530 nM
GI50 [38]: 60.7 nM
TGI [38]: 517 nM
GI50 [39]: 109 nM
TGI [39]: 1230 nM
GI50 [40]: 172 nM
TGI [40]: 2900 nM
GI50 [41]: 61.6 nM
TGI [41]: > 100000 nM
GI50 [42]: 55.4 nM
TGI [42]: 2780 nM
GI50 [43]: 41.8 nM
TGI [43]: 1510 nM
GI50 [44]: 61.4 nM
TGI [44]: > 100000 nM
GI50 [45]: 72.8 nM
TGI [45]: 2310 nM
GI50 [46]: 23.7 nM
TGI [46]: 839 nM
GI50 [47]: 46.4 nM
TGI [47]: 2490 nM
